Results reported in PubChem BioAssay (NCI).
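48-hour exposure; five concentrations; linearly interpolated endpoints. GI50 = concentration required for 50% inhibition of growth. Definition used: TGI = concentration required for complete inhibition of growth.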

Tests used:
Assay in all cases: growth of human tumour cells (NCI), 48 h
MOLT-4 leukemia = system: MOLT-4 leukemia
SK-MEL-5 melanoma = system: SK-MEL-5 melanoma
KM12 colon = system: KM12 colon
RPMI-8226 leukemia = system: RPMI-8226 leukemia
HOP-62 NSCLC = system: HOP-62 NSCLC
MALME-3M melanoma = system: MALME-3M melanoma
HS 578T breast = system: HS 578T breast
OVCAR-8 ovarian = system: OVCAR-8 ovarian
DU-145 prostate = system: DU-145 prostate
NCI-H23 lung = system: NCI-H23 lung

Structure (SMILES)	GI50 (MOLT-4 leukemia) [µM]	TGI (MOLT-4 leukemia) [µM]	GI50 (SK-MEL-5 melanoma) [µM]	TGI (SK-MEL-5 melanoma) [µM]	GI50 (KM12 colon) [µM]	TGI (KM12 colon) [µM]	GI50 (RPMI-8226 leukemia) [µM]	TGI (RPMI-8226 leukemia) [µM]	GI50 (HOP-62 NSCLC) [µM]	TGI (HOP-62 NSCLC) [µM]	GI50 (MALME-3M melanoma) [µM]	TGI (MALME-3M melanoma) [µM]	GI50 (HS 578T breast) [µM]	TGI (HS 578T breast) [µM]	GI50 (OVCAR-8 ovarian) [µM]	TGI (OVCAR-8 ovarian) [µM]	GI50 (DU-145 prostate) [µM]	TGI (DU-145 prostate) [µM]	GI50 (NCI-H23 lung) [µM]	TGI (NCI-H23 lung) [µM]
O=c1oc2ccc(Cl)cc2c(=O)n1-c1ccc(Cl)cc1F	0.581	2.69	0.205	0.486	1.52	4.5	0.28	1.09	0.622	2.86	0.313	1.55	0.285	1.97	0.721	> 21.7	0.846	24.7	0.326	1.79
CCOC(=O)[C@H](CSSc1ncnc2cc[nH]c12)NC(=O)[C@@H](C)c1ccc2cc(OC)ccc2c1	0.388	> 100	2.25	> 32.5	1.61	> 100	0.282	> 100	0.408	> 100	4.02	> 96.5	7.92	> 100	1.82	> 100	0.213	> 100	2.18	> 100
O=c1[nH]cnc2c(C3OC(CO)C(O)C3O)[nH]nc12 (stereo not given)	–	81	–	> 100	–	> 100	–	> 100	–	> 100	–	> 100	–	> 100	–	70.3	–	38.2	–	> 100
COc1cc2c(c(OC)c1OC)-c1ccc([O-])c(=O)cc1[C@@H](NC(C)=O)CC2.COc1cc2c(c(OC)c1OC)-c1ccc([O-])c(=O)cc1[C@@H](NC(C)=O)CC2.[Cu+2]	3.42	21.1	2.94	12	1.87	5.52	3.17	38.2	5.67	> 100	15	> 100	1.94	> 100	3.77	34.5	2.7	7.21	3.73	> 100
Oc1c(Br)cc(Br)cc1CN(Cc1cc(Br)cc(Br)c1O)C1CCCCC1	–	> 100	–	34.6	–	> 100	–	> 100	–	97.5	–	59.8	–	53	–	> 100	–	> 100	–	70.4
Cc1cc(NC(=O)c2ccc(NS(=O)(=O)CCO)cc2N2CCC3(CC2)CC3)nc(N2CCC(F)(F)CC2)n1	12.1	33.1	2.7	19.7	1.7	16.9	9.74	33.4	13.7	30.4	13.9	27.8	0.746	21.9	0.114	24.4	0.0531	15.8	12.6	26.6
N=c1ccn2c(n1)OC1C(OP(=O)(O)O)C(CO)OC12 (stereo not given)	–	> 63.3	–	> 100	–	> 100	–	> 100	–	> 100	–	> 100	–	> 100	–	> 100	–	> 100	–	> 100
COc1cc(N2CCC(N3CCN(C)CC3)CC2)ccc1Nc1ncc(Cl)c(Nc2ccccc2P(C)(C)=O)n1	4.58	> 100	11.9	> 100	2.69	> 100	3.89	39.8	0.797	> 32	7.66	> 100	2.46	24.1	5.05	> 100	0.933	20.5	1.62	> 100
COc1ccc(-c2cc(-c3ccc(Nc4nc(Nc5ccc(Cl)cc5)nc(Nc5ccc(Cl)cc5)n4)cc3)no2)cc1	1.39	5.44	5.08	20.3	7.83	30.3	13.1	48.2	20.5	60.5	20.5	49	20.3	> 100	12.6	55.3	11.4	36.3	11.7	28.1
CC[C@H](C)c1occ2c(O)c(C(=O)O)c(=O)cc-2c1C	–	54.3	–	38.1	–	35.7	–	90.8	–	69.1	–	37.7	–	> 100	–	41.4	–	> 100	–	43.1
O=S(=O)(NCCNc1cc(-c2cn(-c3ccccc3)nc2-c2cccc(O)c2)ccn1)c1ccc(C(F)(F)F)cc1	2.05	5.71	1.78	3.36	2.62	7.98	2.77	7.85	2.56	9.14	1.68	4.57	2.31	19.4	4.91	26.1	4.44	15.9	2.97	15.4
